The values below come from ChEMBL document CHEMBL3853271, “Recent progress towards an effective treatment of amyotrophic lateral sclerosis using the SOD1 mouse model in a preclinical setting” (2016).

The test system of experiment [1] is Mus musculus. In words: Neuroprotective activity in transgenic mouse amyotrophic lateral sclerosis model harboring human SOD1 H46R mutant assessed as increase in survival rate at 0.5 mg/kg, ig administered daily starting at day of disease onset until disease end stage relative to control. It counts as functional.
The subject of experiment [2] is Mus musculus. Put plainly: Neuroprotective activity in transgenic mouse amyotrophic lateral sclerosis model harboring human SOD1 H46R mutant assessed as increase in survival rate at 0.1 mg/kg, ig administered daily starting at day of disease onset until disease end stage relative to control. It counts as functional.
For experiment [3], the system named is Mus musculus. Put plainly: Neuroprotective activity in transgenic mouse amyotrophic lateral sclerosis model harboring human SOD1 H46R mutant assessed as ChAT-positive motor neurons loss in anterior horn at 0.5 mg/kg, ig administered daily starting at day of disease onset until disease end stage by immunostaining method (reference value: 43%). It counts as functional.

Experiment [4] deals with Mus musculus. Put plainly: Neuroprotective activity in transgenic C57/BL6 mouse amyotrophic lateral sclerosis model harboring SOD1 G93A mutant assessed as decrease in misfolded SOD1 levels in spinal cord at 4 mg/kg, ip administered twice weekly started from postnatal day 40 until disease end stage by immunoprecipitation method relative to control. It counts as functional. Details: scale not given: the % may be the effect or the level left.

The nature of experiment [5]: Neuroprotective activity in transgenic C57/BL6 mouse amyotrophic lateral sclerosis model harboring SOD1 G93A mutant assessed as upregulation of HSP70 levels in spinal cord at 4 mg/kg, ip administered twice weekly started from postnatal day 40 until disease end stage by Western blot method relative to control. It counts as functional, organism-based. In general terms: In western blotting, separated proteins are transferred to a membrane and probed.

Experiment [6] is described as follows: Neuroprotective activity in transgenic C57/BL6 mouse amyotrophic lateral sclerosis model harboring SOD1 G93A mutant assessed as upregulation of HSP25 levels in spinal cord at 4 mg/kg, ip administered twice weekly started from postnatal day 40 until disease end stage by Western blot method relative to control. It is filed as functional, organism-based.
Experiment [7] deals with Mus musculus. In words: Neuroprotective activity in transgenic mouse amyotrophic lateral sclerosis model harboring SOD1 G93A mutant assessed as increase in survival rate at 60 mg/kg, administered via oral gavage started from first day of symptomatic onset until disease end stage relative to control. It counts as functional.
The test system of experiment [8] is Mus musculus. Put plainly: Neuroprotective activity in transgenic mouse amyotrophic lateral sclerosis model harboring SOD1 G93A mutant assessed as death of motor neurons in lumbar spinal cord at 10 mg/kg, po measured at 7 days post disease onset by immunostaining method (reference value: 58%). It counts as functional.
The test system of experiment [9] is Mus musculus. Put plainly: Neuroprotective activity in transgenic mouse amyotrophic lateral sclerosis model harboring SOD1 G93A mutant assessed as death of motor neurons in lumbar spinal cord at 4 mg/kg, ip administered every other day started from postnatal day 40 until disease end stage by immunostaining method (reference value: 71%). It counts as functional.

For experiment [10], the system named is Mus musculus. Put plainly: Neuroprotective activity in transgenic mouse amyotrophic lateral sclerosis model harboring human SOD1 H46R mutant assessed as prolongation of survival at 1 to 100 ug/kg, administered through gastric tube daily started between day 121 to 130 of disease onset until disease end stage relative to control. It is filed as functional, Stomach.

For experiment [11], the system named is Mus musculus. Put plainly: Neuroprotective activity in transgenic mouse amyotrophic lateral sclerosis model harboring SOD1 […] mutant assessed as prolongation of survival at 10 ug/kg, administered through gastric tube daily started between day 88 to 106 of disease onset until disease end stage relative to control. It counts as functional.

For the molecule `Cc1cc(C)c(OCC(=O)Nc2nc(-c3ccccn3)cs2)c(C)c1`, the Activity in experiment [1] was 16%; in experiment [2], 11%; in experiment [3], 23%.
On to `CC1=C(CO)C(=O)O[C@@H]([C@@H](C)[C@H]2CC[C@H]3[C@@H]4C[C@H]5O[C@]56[C@@H](O)C=CC(=O)[C@]6(C)[C@H]4CC[C@]23C)C1` [WITHAFERIN A], for which, in [4], the Activity amounted to 39%. Moreover, the fold change (FC) in [5] stood at 2.2; in experiment [6] it was 2.6.
Turning to `CCCCC1OC(=O)c2ccccc21` (racemic) [RAC-3-N-BUTYLPHTHALIDE], the Activity in [7] is recorded as 42%.
As for `O=C(/C=C/c1ccc(O)c(O)c1)OCCc1ccccc1` [CAFFEIC ACID PHENETHYL ESTER], in experiment [8], the Activity is 10%.
As to `N=C(N)N/N=C/c1c(Cl)cccc1Cl` [GUANABENZ], the Activity in experiment [9] is reported as 44%.
On to `Cc1cc(C)c(N(C)CC(=O)Nc2nc(-c3ccccn3)c[nH]2)c(C)c1.Cl.Cl.Cl`, for which the results for the Activity in [10] and in [11] were 20% and 14%, respectively.
